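Tested at 5 concentrations; 48 h exposure; 96-well plates; endpoints linearly interpolated, else capped at highest concentration. The concentration for 50% growth inhibition is given as GI50. TGI marks complete inhibition of growth.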

Experiment in all cases: DTP human tumour cell line panel, 48 h
Test [1] has as its system MALME-3M melanoma.
Test [2] has as its system A498 renal.
Test [3] relates to NCI-H522 lung.
In test [4] the test system is OVCAR-8 ovarian.
The test system of test [5] is OVCAR-5 ovarian.
Test [6] has as its system ACHN renal.
For test [7], the system named is MOLT-4 leukemia.
The subject of test [8] is UACC-257 melanoma.
For test [9], the system named is M14 melanoma.
The test system of test [10] is HT29 colon.

Consider `Cc1ccc(C(=O)Nc2ccc(CN3CCN(C)CC3)c(C(F)(F)F)c2)cc1C#Cc1cnc(N)c2ccc(C#N)cc12`, for which the GI50 (in general, the concentration at which growth is held to half of that of the control) in test [1] was 0.0237 µM; in [2] it was 0.133 µM; in test [3], 0.605 µM; in test [4] it was 0.541 µM; in test [5], 5.85 µM; in test [6] it was 0.0182 µM. The concentration for 50% growth inhibition (GI50) in test [7] is 0.105 µM; in [8] it was 0.332 µM; in [9], 0.0234 µM; in [10], 0.211 µM. Further, the TGI – broadly, the concentration at which net growth stops – is 0.694 µM in [1]; 49.3 µM in test [2]; more than 25.2 µM in test [3]; more than 11.7 µM in test [4]; 16.4 µM in test [5]; 6.23 µM in test [6]. Besides, the total growth inhibition concentration (TGI) in [7] was more than 12 µM; in test [8], more than 35 µM; in test [9], 2.34 µM.

With `O=C(CC(O)c1cccnc1)CC(O)c1cccnc1` (centres undefined), the TGI in test [1] was found to be 39.9 µM; in [2], 30.6 µM; in test [3], 32.1 µM; in [4] it was 35.7 µM; in test [5], 54 µM; in test [6] it was 35.3 µM. Further, the TGI in test [7] was more than 52.1 µM; in test [8] it was 36.1 µM; in test [9], 27.8 µM; in test [10] it was 20.7 µM.

For `C/C(=N\NC(=O)c1cccc(S(=O)(=O)N2CCN(C)CC2)c1)c1cc(Cl)ccc1O`, the GI50 was 2.39 µM in test [1]; 40.6 µM in test [2]; 1.26 µM in test [3]; 0.494 µM in [4]; 1.86 µM in test [5]; 0.46 µM in test [6]. In addition, the GI50 is 0.47 µM in [7], 2.37 µM in test [8], 1.06 µM in [9] and 0.397 µM in test [10]. The TGI in test [1] was 36.6 µM; in test [2], more than 100 µM; in [3] it was more than 72.7 µM; in [4], more than 100 µM; in [5], more than 100 µM; in test [6], more than 100 µM. Further, the TGI in test [7] was more than 49.4 µM; in [8], 25.8 µM; in [9], 9.85 µM; in test [10], 20.1 µM.

Take `CC[C@]12C=CCN3CC[C@@]4(c5ccc(OC)cc5N(C)[C@H]4[C@@](O)(C(=O)OC)[C@@H]1OC(=O)CCCC[P+](c1ccccc1)(c1ccccc1)c1ccccc1)[C@@H]32`: the 50% growth inhibitory concentration (GI50) in [1] was 0.319 µM; in [2], 2.84 µM; in [3], 0.295 µM; in test [4] it was 2.23 µM; in [5] it was 1.82 µM; in test [6] it was 14 µM. In addition, the GI50 was 1.36 µM in test [7], 0.279 µM in test [8], 1.45 µM in test [9] and 0.441 µM in test [10]. The TGI in test [1] is 1.35 µM; in test [2], 10.4 µM; in test [3], 1.77 µM; in [4] it was 9.92 µM; in test [5], 12.5 µM; in test [6] it was 30.1 µM. Besides, the TGI in [7] is 5.29 µM; in test [8], 1.09 µM; in test [9] it was 4.13 µM; in [10], 5.48 µM.

As for `CCCCCCCCCCCCCCCCSS(C)(=O)=O`, the TGI in test [1] was 24.9 µM; in test [2] it was more than 97.2 µM; in [3], 11 µM; in test [4], 58.7 µM; in test [5], more than 100 µM; in [6], 32.3 µM. The TGI in test [7] was 6.77 µM; in test [8] it was more than 93.5 µM; in test [9], 25.2 µM; in test [10] it was more than 69.6 µM.

As for `Nc1c(C(=O)c2cccc(C(O)(CO)CO)c2)cnn1-c1ccc(F)cc1`, the GI50 in test [1], in test [2], in [3], in test [4], in test [5] and in test [6] was more than 25 µM each time. The GI50 in [7], in [8], in test [9] and in test [10] was more than 25 µM throughout. Besides, the concentration for total growth inhibition (TGI) in test [1], in test [2], in test [3], in test [4], in [5] and in [6] was more than 25 µM each time. For the same molecule, the TGI in test [7], in [8], in test [9] and in [10] was more than 25 µM throughout.

Take `COc1ccc(-c2cc(=O)c3c(OC)c(O)c(OC)cc3o2)cc1`: the TGI in test [1] was more than 100 µM; in [2] it was 88.5 µM; in [3] it was more than 100 µM; in test [4] it was more than 100 µM; in [5] it was more than 100 µM; in test [6], more than 100 µM. Moreover, the TGI in test [7], in test [8], in test [9] and in test [10] was more than 100 µM throughout.

With `C=CCNC(=O)ON1C(=O)CCC1=O`, the TGI in test [1], in [2], in test [3], in [4], in test [5] and in test [6] was more than 100 µM throughout. In addition, the TGI in test [7], in [8], in [9] and in test [10] was more than 100 µM in each case.

For `COc1ccc(/C=C(/C(=O)N2CCN(c3ccc(C)cc3)CC2)c2cc(OC)c(OC)c(OC)c2)cc1N`, the GI50 in test [1] was 0.503 µM; in test [2], 0.0571 µM; in test [3] it was 0.168 µM; in test [4], 0.417 µM; in test [5] it was 0.715 µM; in test [6], 0.203 µM. Moreover, the GI50 in test [7] is 0.437 µM; in test [8], more than 87.3 µM; in [9], 0.247 µM; in test [10], 0.339 µM. Besides, the TGI in [1] is more than 100 µM; in test [2] it was 2.3 µM; in test [3], more than 100 µM; in [4], more than 100 µM; in [5], more than 100 µM; in [6], more than 100 µM. Also, the TGI was more than 100 µM in test [7], more than 100 µM in test [8], 2.48 µM in test [9] and more than 39.2 µM in test [10].

(Values after PubChem BioAssay (NCI).)
